{"source": "patent US20110217713A1", "about": "(On-Q-ity, priority 2010, published 2011)", "test_system": "non-small cell lung cancer patient specimens (adenocarcinomas and squamous cell carcinoma)", "assay": "International Adjuvant Lung Trial (IALT): cisplatin-based therapy vs observation, DFS/OS against IHC DNA repair biomarker Q-scores (Cox PH models)", "format": "in vivo, human", "experimental": "An immunohistochemical evaluation of DNA Repair Proteins was conducted on a large international patient specimen collection from the IALT trial (International Adjuvant Lung Trial). This clinical trial originally comprised approximately 1867 non-small cell lung cancer patient specimens (adenocarcinomas and squamous cell carcinoma) and was designed to test clinical parameters for patients receiving either cisplatin-based therapy or those considered observation. One problem with testing of biomarkers in general from clinical trials is that the patient population treatments are generally a mixture of several different treatments and combinations of such and so results may be confounded by interactions of various treatments. However, the IALT trial represents pristine treatment arms of cisplatin and observation and thus is relatively free of confounding affects due to treatment variation.\nInternational Adjuvant Lung Cancer Trial (IALT) NSCLC FFPE patient specimens constructed on TMAs (13 total) were stained by IHC for DNA repair biomarkers: ATM, MSH2, ERCC1, p53, pMK2, PARP1, BRCA1, XPF. An average of 603 patients were analyzed for each biomarker. Tumor biomarker nuclear or cytoplasmic levels were determined using digital image user defined macros. Scores were generated based on weighted intensity and quantity of stained cells. In reference to accompanying diagrams in the Powerpoint files, please note that a wide dynamic range achieved during assay development and optimization in commercially available TMAs is translationally achieved when patients comprising this study population are stained, annotated for tumor region and scored by user-defined macros.\nPrevious studies have utilized standard pathologist-based scoring, thus we chose to optimize the IHC-based assessment of biomarker levels using digital pathology and weighted scoring. This endeavor is undertaken so that for a given population a continuum of scores (herein referred to as Q-scores) with a broad dynamic range may be generated by user defined macros. Here, scoring of individual tumor cells comprising each patient specimen is generated and then patients assembled into a population continuum of scores against which finer cut-points may tested and established rather than crude binning methods as employed in previous studies.\nQ-score=10*(% of 10+cells)+9*(% of 9+cells)+8*(% of 8+cells)+7*(% of 7+cells) . . . 1*(% of 1+cells)\nCox PH models adjusted for relevant clinical and stratification variables were used in the univariate analyses of Disease-Free Survival (DFS) and Overall Survival (OS). Initial analyses were conducted using biomarker Q scores as continuous variables against clinical endpoint metrics.", "key": {"[1]": {"settings": "ATM model, ADENOCARCINOMA, With adjustment variables"}, "[2]": {"settings": "ATM model, ADENOCARCINOMA, With selected variables"}, "[3]": {"settings": "ATM model, ADENOCARCINOMA, Without variables"}, "[4]": {"settings": "ATM model, SQUAMOUS CELLS, With adjustment variables"}, "[5]": {"settings": "ATM model, SQUAMOUS CELLS, With selected variables"}, "[6]": {"settings": "ATM model, SQUAMOUS CELLS, Without variables"}, "[7]": {"settings": "BRCA1 model, ADENOCARCINOMA, With adjustment variables"}, "[8]": {"settings": "BRCA1 model, ADENOCARCINOMA, With selected variables"}, "[9]": {"settings": "BRCA1 model, ADENOCARCINOMA, Without variables"}, "[10]": {"settings": "BRCA1 model, SQUAMOUS CELLS, With adjustment variables"}, "[11]": {"settings": "BRCA1 model, SQUAMOUS CELLS, With selected variables"}, "[12]": {"settings": "BRCA1 model, SQUAMOUS CELLS, Without variables"}, "[13]": {"settings": "Cox PH model with PMK2MC, with adjustment variables, histology heading not shown"}, "[14]": {"settings": "Disease Free Survival, MEAN Q SCORE OF PMK2 CYTOPLASM DIVIDED BY NUCLEAR, Adenocarcinoma, With selected variables"}, "[15]": {"settings": "Disease Free Survival, MEAN Q SCORE OF PMK2 CYTOPLASM DIVIDED BY NUCLEAR, Adenocarcinoma, Without variables"}, "[16]": {"settings": "Disease Free Survival, MEAN Q SCORE PMK2 CYTOPLASM, Adenocarcinoma, With adjustment variables"}, "[17]": {"settings": "Disease Free Survival, MEAN Q SCORE PMK2 CYTOPLASM, Adenocarcinoma, With selected variables"}, "[18]": {"settings": "Disease Free Survival, MEAN Q SCORE PMK2 CYTOPLASM, Adenocarcinoma, Without variables"}, "[19]": {"settings": "Disease Free Survival, MEAN Q SCORE PMK2 CYTOPLASM, Squamous Cells, With adjustment variables"}, "[20]": {"settings": "Disease Free Survival, MEAN Q SCORE PMK2 CYTOPLASM, Squamous Cells, With selected variables"}, "[21]": {"settings": "Disease Free Survival, MEAN Q SCORE PMK2 CYTOPLASM, Squamous Cells, Without variables"}, "[22]": {"settings": "Disease Free Survival, MEAN Q SCORE PMK2 NUCLEAR, Adenocarcinoma, With adjustment variables"}, "[23]": {"settings": "Disease Free Survival, MEAN Q SCORE PMK2 NUCLEAR, Adenocarcinoma, With selected variables"}, "[24]": {"settings": "Disease Free Survival, MEAN Q SCORE PMK2 NUCLEAR, Adenocarcinoma, Without variables"}, "[25]": {"settings": "Disease Free Survival, MEAN Q SCORE PMK2 NUCLEAR, Squamous Cells, With adjustment variables"}, "[26]": {"settings": "Disease Free Survival, MEAN Q SCORE PMK2 NUCLEAR, Squamous Cells, With selected variables"}, "[27]": {"settings": "Disease Free Survival, MEAN Q SCORE PMK2 NUCLEAR, Squamous Cells, Without variables"}, "[28]": {"settings": "Disease Free Survival, MEAN Q SCORE SUM OF PMK2 CYTOPLASM & NUCLEAR, Adenocarcinoma, With adjustment variables"}, "[29]": {"settings": "Disease Free Survival, MEAN Q SCORE SUM OF PMK2 CYTOPLASM & NUCLEAR, Adenocarcinoma, With selected variables"}, "[30]": {"settings": "Disease Free Survival, MEAN Q SCORE SUM OF PMK2 CYTOPLASM & NUCLEAR, Adenocarcinoma, Without variables"}, "[31]": {"settings": "Disease Free Survival, MEAN Q SCORE SUM OF PMK2 CYTOPLASM & NUCLEAR, Squamous Cells, With adjustment variables"}, "[32]": {"settings": "Disease Free Survival, MEAN Q SCORE SUM OF PMK2 CYTOPLASM & NUCLEAR, Squamous Cells, With selected variables"}, "[33]": {"settings": "Disease Free Survival, MEAN Q SCORE SUM OF PMK2 CYTOPLASM & NUCLEAR, Squamous Cells, Without variables"}, "[34]": {"settings": "ERCC1 model, ADENOCARCINOMA, With adjustment variables"}}}
{"compound": "N.N.[Cl][Pt][Cl]", "note": "[cisplatin]", "values": [{"measurement": "HazardRatio, ATM_Treatment", "setting": "[1]", "value": 0.941}, {"measurement": "HazardRatio, Treatment", "setting": "[1]", "value": 1.033}, {"measurement": "HazardRatio, ATM_Treatment", "setting": "[2]", "value": 0.993}, {"measurement": "HazardRatio, Treatment", "setting": "[2]", "value": 1.004}, {"measurement": "HazardRatio, ATM_Treatment", "setting": "[3]", "value": 0.972}, {"measurement": "HazardRatio, Treatment", "setting": "[3]", "value": 1.142}, {"measurement": "HazardRatio, ATM_Treatment", "setting": "[4]", "value": 1.172}, {"measurement": "HazardRatio, Treatment", "setting": "[4]", "value": 0.625}, {"measurement": "HazardRatio, ATM_Treatment", "setting": "[5]", "value": 1.172}, {"measurement": "HazardRatio, Treatment", "setting": "[5]", "value": 0.640}, {"measurement": "HazardRatio, ATM_Treatment", "setting": "[6]", "value": 1.148}, {"measurement": "HazardRatio, Treatment", "setting": "[6]", "value": 0.659}, {"measurement": "HazardRatio, BRCA1_Treatment", "setting": "[7]", "value": 1.022}, {"measurement": "HazardRatio, Treatment", "setting": "[7]", "value": 0.895}, {"measurement": "HazardRatio, BRCA1_Treatment", "setting": "[8]", "value": 1.027}, {"measurement": "HazardRatio, Treatment", "setting": "[8]", "value": 0.954}, {"measurement": "HazardRatio, BRCA1_Treatment", "setting": "[9]", "value": 0.844}, {"measurement": "HazardRatio, Treatment", "setting": "[9]", "value": 1.391}, {"measurement": "HazardRatio, BRCA1_Treatment", "setting": "[10]", "value": 1.043}, {"measurement": "HazardRatio, Treatment", "setting": "[10]", "value": 0.819}, {"measurement": "HazardRatio, BRCA1_Treatment", "setting": "[11]", "value": 1.048}, {"measurement": "HazardRatio, Treatment", "setting": "[11]", "value": 0.831}, {"measurement": "HazardRatio, BRCA1_Treatment", "setting": "[12]", "value": 1.028}, {"measurement": "HazardRatio, Treatment", "setting": "[12]", "value": 0.852}, {"measurement": "HazardRatio, PMK2MC_Treatment interaction (Disease Free Survival)", "setting": "[13]", "value": 1.244}, {"measurement": "HazardRatio, Treatment (Disease Free Survival)", "setting": "[13]", "value": 0.787}, {"measurement": "HazardRatio, Treatment", "setting": "Disease Free Survival, MEAN Q SCORE OF PMK2 CYTOPLASM DIVIDED BY NUCLEAR, Adenocarcinoma, With adjustment variables", "value": 0.790}, {"measurement": "HazardRatio, PMK2MCNp_Treatment", "setting": "[14]", "value": "31E22"}, {"measurement": "HazardRatio, Treatment", "setting": "[14]", "value": 0.827}, {"measurement": "HazardRatio, PMK2MCNp_Treatment", "setting": "[15]", "value": 263.6}, {"measurement": "HazardRatio, Treatment", "setting": "[15]", "value": 0.997}, {"measurement": "HazardRatio, Treatment", "setting": "Disease Free Survival, MEAN Q SCORE OF PMK2 CYTOPLASM DIVIDED BY NUCLEAR, Squamous Cells, With adjustment variables", "value": 0.643}, {"measurement": "HazardRatio, Treatment", "setting": "Disease Free Survival, MEAN Q SCORE OF PMK2 CYTOPLASM DIVIDED BY NUCLEAR, Squamous Cells, With selected variables", "value": 0.681}, {"measurement": "HazardRatio, Treatment", "setting": "Disease Free Survival, MEAN Q SCORE OF PMK2 CYTOPLASM DIVIDED BY NUCLEAR, Squamous Cells, Without variables", "value": 0.755}, {"measurement": "HazardRatio, PMK2MC_Treatment", "setting": "[16]", "value": 1.163}, {"measurement": "HazardRatio, Treatment", "setting": "[16]", "value": 0.862}, {"measurement": "HazardRatio, PMK2MC_Treatment", "setting": "[17]", "value": 1.096}, {"measurement": "HazardRatio, Treatment", "setting": "[17]", "value": 0.874}, {"measurement": "HazardRatio, PMK2MC_Treatment", "setting": "[18]", "value": 0.647}, {"measurement": "HazardRatio, Treatment", "setting": "[18]", "value": 1.173}, {"measurement": "HazardRatio, PMK2MC_Treatment", "setting": "[19]", "value": 1.206}, {"measurement": "HazardRatio, Treatment", "setting": "[19]", "value": 0.804}, {"measurement": "HazardRatio, PMK2MC_Treatment", "setting": "[20]", "value": 1.203}, {"measurement": "HazardRatio, Treatment", "setting": "[20]", "value": 0.827}, {"measurement": "HazardRatio, PMK2MC_Treatment", "setting": "[21]", "value": 1.134}, {"measurement": "HazardRatio, Treatment", "setting": "[21]", "value": 0.846}, {"measurement": "HazardRatio, PMK2MN_Treatment", "setting": "[22]", "value": 1.094}, {"measurement": "HazardRatio, Treatment", "setting": "[22]", "value": 0.815}, {"measurement": "HazardRatio, PMK2MN_Treatment", "setting": "[23]", "value": 1.087}, {"measurement": "HazardRatio, Treatment", "setting": "[23]", "value": 0.816}, {"measurement": "HazardRatio, PMK2MN_Treatment", "setting": "[24]", "value": 0.911}, {"measurement": "HazardRatio, Treatment", "setting": "[24]", "value": 1.145}, {"measurement": "HazardRatio, PMK2MN_Treatment", "setting": "[25]", "value": 1.126}, {"measurement": "HazardRatio, Treatment", "setting": "[25]", "value": 0.758}, {"measurement": "HazardRatio, PMK2MN_Treatment", "setting": "[26]", "value": 1.129}, {"measurement": "HazardRatio, Treatment", "setting": "[26]", "value": 0.775}, {"measurement": "HazardRatio, PMK2MN_Treatment", "setting": "[27]", "value": 1.107}, {"measurement": "HazardRatio, Treatment", "setting": "[27]", "value": 0.789}, {"measurement": "HazardRatio, PMK2MCNs_Treatment", "setting": "[28]", "value": 1.064}, {"measurement": "HazardRatio, Treatment", "setting": "[28]", "value": 0.824}, {"measurement": "HazardRatio, PMK2MCNs_Treatment", "setting": "[29]", "value": 1.056}, {"measurement": "HazardRatio, Treatment", "setting": "[29]", "value": 0.829}, {"measurement": "HazardRatio, PMK2MCNs_Treatment", "setting": "[30]", "value": 0.915}, {"measurement": "HazardRatio, Treatment", "setting": "[30]", "value": 1.174}, {"measurement": "HazardRatio, PMK2MCNs_Treatment", "setting": "[31]", "value": 1.078}, {"measurement": "HazardRatio, Treatment", "setting": "[31]", "value": 0.772}, {"measurement": "HazardRatio, PMK2MCNs_Treatment", "setting": "[32]", "value": 1.079}, {"measurement": "HazardRatio, Treatment", "setting": "[32]", "value": 0.791}, {"measurement": "HazardRatio, PMK2MCNs_Treatment", "setting": "[33]", "value": 1.062}, {"measurement": "HazardRatio, Treatment", "setting": "[33]", "value": 0.808}, {"measurement": "HazardRatio, ERCC1_Treatment", "setting": "[34]", "value": 1.170}, {"measurement": "HazardRatio, Treatment", "setting": "[34]", "value": 0.689}, {"measurement": "HazardRatio, ERCC1_Treatment", "setting": "ERCC1 model, ADENOCARCINOMA, With selected variables", "value": 1.151}]}
